Results on 9 compounds are retold here after US10004701B2, “Methods and compositions for treating infection” (UNIVERSITY OF ROCHESTER, priority 2012, dated 2018).

Test in all cases: AK assay 384-well format, Prestwick library screening
The subject of one experiment is K. pneumoniae. In kind it is cell-based, Klebsiella pneumoniae. The settings on record: 50 μM final drug concentration; for fold induction at 50 µM: Klebsiella pneumoniae, 3 h.
The test system of experiment [1] is S. aureus strain USA300-0114. In kind it is cell-based, Staphylococcus aureus. Particulars: 50 μM final drug concentration; for fold induction at 50 µM: Staphylococcus aureus, USA300, 3 h.
The next experiment has as its system E. coli. In kind it is cell-based, Escherichia coli. The settings on record: 50 μM final drug concentration; for fold induction at 50 µM: Escherichia coli, 3 h.
A further experiment relates to E. cloacae. In kind it is cell-based, Enterobacter cloacae. The settings on record: 50 μM final drug concentration; for fold induction at 50 µM: Enterobacter cloacae, 3 h.
For the next experiment, the system named is P. aeruginosa. In kind it is cell-based, Pseudomonas aeruginosa. The settings on record: 50 μM final drug concentration; for fold induction at 50 µM: Pseudomonas aeruginosa, 3 h.
Experiment [2] relates to A. baumannii strain 98-37-09. In kind it is cell-based, Acinetobacter baumannii. The settings on record: 50 μM final drug concentration; for fold induction at 50 µM: Acinetobacter baumannii, 983709, 3 h.
A further experiment deals with E. faecium. In kind it is cell-based, Enterococcus faecium. Particulars: 50 μM final drug concentration; for fold induction at 50 µM: Enterococcus faecium, 3 h.
Setting [3] is: planktonic K. pneumoniae, positive cutoff 3-fold increase, read-out: AK-based Prestwick library screening result, K. pneumoniae (fold increase in extracellular AK activity).
Where [4] appears, read: planktonic S. aureus, positive cutoff 3-fold increase, read-out: AK-based Prestwick library screening result, S. aureus (fold increase in extracellular AK activity).
[5] abbreviates: planktonic E. coli, positive cutoff 3-fold increase, read-out: AK-based Prestwick library screening result, E. coli (fold increase in extracellular AK activity).
Setting [6] is: planktonic E. cloacae, positive cutoff 3-fold increase, read-out: AK-based Prestwick library screening result, E. cloacae (fold increase in extracellular AK activity).
The mark [7] stands for this setting: planktonic P. aeruginosa, positive cutoff 3-fold increase, read-out: AK-based Prestwick library screening result, P. aeruginosa (fold increase in extracellular AK activity).
The mark [8] stands for this setting: planktonic A. baumannii, positive cutoff 3-fold increase, read-out: AK-based Prestwick library screening result, A. baumannii (fold increase in extracellular AK activity).
Setting [9] is: planktonic E. faecium, positive cutoff 3-fold increase, read-out: AK-based Prestwick library screening result, E. faecium (fold increase in extracellular AK activity).
Where [10] appears, read: 384-well format, cutoff for positive-scoring molecules 3-fold increase, read-out: AK-based Prestwick Library Screening Results, K. pneumoniae (increase in extracellular AK activity).
[11] abbreviates: 384-well format, cutoff for positive-scoring molecules 3-fold increase, read-out: AK-based Prestwick Library Screening Results, S. aureus (increase in extracellular AK activity).
Setting [12] is: 384-well format, cutoff for positive-scoring molecules 3-fold increase, read-out: AK-based Prestwick Library Screening Results, E. coli (increase in extracellular AK activity).
Setting [13] is: 384-well format, cutoff for positive-scoring molecules 3-fold increase, read-out: AK-based Prestwick Library Screening Results, E. cloacae (increase in extracellular AK activity).
The mark [14] stands for this setting: 384-well format, cutoff for positive-scoring molecules 3-fold increase, read-out: AK-based Prestwick Library Screening Results, P. aeruginosa (increase in extracellular AK activity).
Setting [15] is: 384-well format, cutoff for positive-scoring molecules 3-fold increase, read-out: AK-based Prestwick Library Screening Results, A. baumannii (increase in extracellular AK activity).
Where [16] appears, read: 384-well format, cutoff for positive-scoring molecules 3-fold increase, read-out: AK-based Prestwick Library Screening Results, E. faecium (increase in extracellular AK activity).
Where [17] appears, read: planktonic, cutoff for positive 3-fold increase, read-out: AK-based Prestwick Library Screening Results, K. pneumoniae (fold increase in extracellular AK activity).
Setting [18] is: planktonic, cutoff for positive 3-fold increase, read-out: AK-based Prestwick Library Screening Results, S. aureus (fold increase in extracellular AK activity).
[19] abbreviates: planktonic, cutoff for positive 3-fold increase, read-out: AK-based Prestwick Library Screening Results, E. coli (fold increase in extracellular AK activity).
[20] abbreviates: planktonic, cutoff for positive 3-fold increase, read-out: AK-based Prestwick Library Screening Results, E. cloacae (fold increase in extracellular AK activity).
Setting [21] is: planktonic, cutoff for positive 3-fold increase, read-out: AK-based Prestwick Library Screening Results, P. aeruginosa (fold increase in extracellular AK activity).
The mark [22] stands for this setting: planktonic, cutoff for positive 3-fold increase, read-out: AK-based Prestwick Library Screening Results, A. baumannii (fold increase in extracellular AK activity).
The mark [23] stands for this setting: planktonic, cutoff for positive 3-fold increase, read-out: AK-based Prestwick Library Screening Results, E. faecium (fold increase in extracellular AK activity).

Structures can show the parent of a compound that is named as a salt. Where two headings read alike, the source gives them in different places.

`CC1(C)S[C@@H]2[C@H](NC(=O)[C@H](C(=O)O)c3ccsc3)C(=O)N2[C@H]1C(=O)O` [Ticarcillin sodium]: the fold induction at 50 µM with K. pneumoniae (setting [3]) worked out at 0.7; in experiment [1] (setting [4]), 0.7; with E. coli (setting [5]) it was 12.8; in the experiment on E. cloacae (setting [6]), 1.4; in the experiment with P. aeruginosa (setting [7]) it was 0.8; in experiment [2] (setting [8]) it was 2.6. The fold induction at 50 µM in the experiment on E. faecium (setting [9]) was determined as 1.2.

For `Nc1ncnc2c1ncn2[C@@H]1O[C@H](CO)[C@@H](O)[C@@H]1O` [Vidarabine], the fold induction at 50 µM with K. pneumoniae (planktonic, cutoff for positive-scoring molecules 3-fold increase, read-out: AK-based Prestwick Library Screening Results, K. pneumoniae (fold increase in extracellular AK activity)) was determined as 0.7; in experiment [1] (planktonic, cutoff for positive-scoring molecules 3-fold increase, read-out: AK-based Prestwick Library Screening Results, S. aureus (fold increase in extracellular AK activity)), 1.5; in the experiment with E. coli (planktonic, cutoff for positive-scoring molecules 3-fold increase, read-out: AK-based Prestwick Library Screening Results, E. coli (fold increase in extracellular AK activity)), 1.1; with E. cloacae (planktonic, cutoff for positive-scoring molecules 3-fold increase, read-out: AK-based Prestwick Library Screening Results, E. cloacae (fold increase in extracellular AK activity)) it was 1.8; with P. aeruginosa (planktonic, cutoff for positive-scoring molecules 3-fold increase, read-out: AK-based Prestwick Library Screening Results, P. aeruginosa (fold increase in extracellular AK activity)) it was 1; in experiment [2] (planktonic, cutoff for positive-scoring molecules 3-fold increase, read-out: AK-based Prestwick Library Screening Results, A. baumannii (fold increase in extracellular AK activity)), 1. Moreover, the fold induction at 50 µM in the experiment with E. faecium (planktonic, cutoff for positive-scoring molecules 3-fold increase, read-out: AK-based Prestwick Library Screening Results, E. faecium (fold increase in extracellular AK activity)) amounted to 1.1.

For `C/C=C1/C[N@+]2(C)CC[C@]34C(=C(C=O)[C@H]1C[C@@H]32)Nc1ccccc14.[Cl-]` [Fluorocurarine chloride], in the experiment on K. pneumoniae (planktonic, […]), the “AK-based Prestwick Library Screening Results, K. pneumoniae (fold increase in extracellular AK activity)” value was 0.7. Further, the “AK-based Prestwick Library Screening Results, S. aureus (fold increase in extracellular AK activity)” value in experiment [1] (planktonic, […]) is recorded as 0.8. Also, the “AK-based Prestwick Library Screening Results, E. coli (fold increase in extracellular AK activity)” value in the experiment with E. coli (planktonic, […]) is reported as 0.9. The “AK-based Prestwick Library Screening Results, E. cloacae (fold increase in extracellular AK activity)” value in the experiment with E. cloacae (planktonic, […]) is 1.4. Further, the “AK-based Prestwick Library Screening Results, P. aeruginosa (fold increase in extracellular AK activity)” value in the experiment on P. aeruginosa (planktonic, […]) came to 0.8. The “AK-based Prestwick Library Screening Results, A. baumannii (fold increase in extracellular AK activity)” value in experiment [2] (planktonic, […]) amounted to 0.9. Moreover, the “AK-based Prestwick Library Screening Results, E. faecium (fold increase in extracellular AK activity)” value with E. faecium (planktonic, […]) is recorded as 0.9.

With `O=C(CCCN1CC=C(n2c(=O)[nH]c3ccccc32)CC1)c1ccc(F)cc1` [Droperidol], the fold induction at 50 µM worked out at 0.7 with K. pneumoniae (planktonic K. pneumoniae, cutoff for positive-scoring molecules 3-fold increase, read-out: AK-based Prestwick Library Screening Results, K. pneumoniae (increase in extracellular AK activity)); 0.9 in experiment [1] (planktonic S. aureus, cutoff for positive-scoring molecules 3-fold increase, read-out: AK-based Prestwick Library Screening Results, S. aureus (increase in extracellular AK activity)); 0.9 in the experiment on E. coli (planktonic E. coli, cutoff for positive-scoring molecules 3-fold increase, read-out: AK-based Prestwick Library Screening Results, E. coli (increase in extracellular AK activity)); 1.2 with E. cloacae (planktonic E. cloacae, cutoff for positive-scoring molecules 3-fold increase, read-out: AK-based Prestwick Library Screening Results, E. cloacae (increase in extracellular AK activity)); 0.7 with P. aeruginosa (planktonic P. aeruginosa, cutoff for positive-scoring molecules 3-fold increase, read-out: AK-based Prestwick Library Screening Results, P. aeruginosa (increase in extracellular AK activity)); 1 in experiment [2] (planktonic A. baumannii, cutoff for positive-scoring molecules 3-fold increase, read-out: AK-based Prestwick Library Screening Results, A. baumannii (increase in extracellular AK activity)). Moreover, the fold induction at 50 µM in the experiment on E. faecium (planktonic E. faecium, cutoff for positive-scoring molecules 3-fold increase, read-out: AK-based Prestwick Library Screening Results, E. faecium (increase in extracellular AK activity)) turned out to be 1.

As for `C#C[C@]1(O)CC[C@H]2[C@@H]3CCC4=C(CCC(=O)C4)[C@H]3CC[C@@]21C` [Norethynodrel], the fold induction at 50 µM in the experiment on K. pneumoniae (setting [10]) came to 0.7; in experiment [1] (setting [11]), 0.7; in the experiment on E. coli (setting [12]), 0.9; with E. cloacae (setting [13]) it was 1; in the experiment with P. aeruginosa (setting [14]) it was 0.8; in experiment [2] (setting [15]), 0.7. For the same compound, the fold induction at 50 µM in the experiment on E. faecium (setting [16]) was 0.9.

Regarding `CC(=O)O[C@]1(C(C)=O)CC[C@H]2[C@@H]3C=C(Cl)C4=CC(=O)[C@@H]5C[C@@H]5[C@]4(C)[C@H]3CC[C@@]21C` [Cyproterone acetate], the fold induction at 50 µM with K. pneumoniae (setting [3]) turned out to be 0.7; in experiment [1] (setting [4]), 0.6; in the experiment on E. coli (setting [5]), 0.8; with E. cloacae (setting [6]), 1.4; in the experiment with P. aeruginosa (setting [7]) it was 0.8; in experiment [2] (setting [8]), 0.8. Moreover, in the experiment with E. faecium (setting [9]), the fold induction at 50 µM was found to be 1.

As to `COc1ccc(C[C@H](N)C(=O)N[C@H]2[C@@H](O)[C@H](n3cnc4c(N(C)C)ncnc43)O[C@@H]2CO)cc1` [Puromycin dihydrochloride], the fold induction at 50 µM in the experiment with K. pneumoniae (setting [17]) is 1.1; in experiment [1] (setting [18]), 1.1; in the experiment with E. coli (setting [19]), 1.1; in the experiment with E. cloacae (setting [20]) it was 1.4; with P. aeruginosa (setting [21]), 1; in experiment [2] (setting [22]), 1.6. Moreover, in the experiment on E. faecium (setting [23]), the fold induction at 50 µM came to 1.1.

For the compound `NNCCc1ccccc1` [Phenelzine sulfate], the fold induction at 50 µM was determined as 0.6 in the experiment on K. pneumoniae (setting [10]); 0.5 in experiment [1] (setting [11]); 0.5 with E. coli (setting [12]); 0.5 in the experiment with E. cloacae (setting [13]); 0.5 in the experiment on P. aeruginosa (setting [14]); 0.5 in experiment [2] (setting [15]). The fold induction at 50 µM in the experiment with E. faecium (setting [16]) was 0.8.

As to `COC(=O)C1=C(C)NC(C)=C(C(=O)OCCN(C)Cc2ccccc2)C1c1cccc([N+](=O)[O-])c1` (stereo not drawn) [Nicardipine hydrochloride], the fold induction at 50 µM in the experiment with K. pneumoniae (setting [17]) stood at 1; in experiment [1] (setting [18]), 0.6; in the experiment on E. coli (setting [19]), 1.2; in the experiment with E. cloacae (setting [20]), 1.4; with P. aeruginosa (setting [21]), 1.1; in experiment [2] (setting [22]), 1.3. In addition, the fold induction at 50 µM in the experiment on E. faecium (setting [23]) came to 1.1.
